# Measurements reported in US20110319464A1, “METHODS FOR TREATING BENIGN PROSTATIC HYPERPLASIA” (KISSEI PHARMACEUTICAL CO., LTD., priority 2007, published 2011).
# Read-outs that look alike come from different tables or passages of the source.
# How the values were obtained:
# [1] = Pharmacokinetic Study on Silodosin (Study 98364); format: in vivo; details: human, plasma, 4 mg; for concentration at 2 h: Day 7, 2 h; for concentration at 3 h: Day 7, 3 h; for concentration at 4 h: Day 7, 4 h; for concentration at 5 h: Day 7, 5 h; for concentration at 6 h: Day 7, 6 h; for concentration at 8 h: Day 7, 8 h; for concentration at 0 h: Day 7, 0 h (t0); for concentration at 0.5 h: Day 7, 0.5 h; for concentration at 1 h: Day 7, 1 h; for concentration at 12 h: Day 7, 12 h; for concentration at 24 h: Day 7, 24 h
# Source text: The remaining two subjects in each dosing cohort received placebo.
# symptoms of BPH [2] = experiment: Study D: 8 mg Silodosin Once Daily (SI04009), U.S. Phase 3 Study; format: in vivo, human; details: 8 mg once daily
# Source text: (§1) In addition, the results for IPSS/AUASS for studies A, B, D and E are illustrated in FIGS. 3 to 6, respectively, and the results for Qmax for studies A, B, D and E are illustrated in FIGS. 7 to 10, respectively.
# symptoms of BPH [3] = experiment: Study E: 8 mg Silodosin Once Daily (SI04010), U.S. Phase 3 Study; format: in vivo, human; details: 8 mg once daily
# Source text: as §1
# [4] = test system: symptoms associated with BPH; experiment: Efficacy Studies on Silodosin, studies A-E compared (once daily vs twice daily); format: in vivo, human; details: Tables 6 and 7
# Source text: as §1
# symptoms of BPH [5] = experiment: Study A: 4 mg Silodosin Twice Daily (KMD-202), Japanese Phase 2 Study; format: in vivo, human; details: 4 mg twice daily
# Source text: Patients were males who were at least 50 years of age and who had at least two of the following three variables classified as moderate, or at least one variable classified as severe: IPSS/AUASS, Qmax and QoL. In addition, the results for IPSS/AUASS for studies A, B, D and E are illustrated in FIGS. 3 to 6, respectively, and the results for Qmax for studies A, B, D and E are illustrated in FIGS. 7 to 10, respectively.
# [6] = 4 mg once daily 7 days, individual subjects, read-out: Blood Plasma Concentrations
# [7] = male, 4 mg once daily 7 days, mean, read-out: Blood Plasma Concentrations
# [8] = male, 4 mg twice daily 7 days (simulated from Table 1a), read-out: Estimated Blood Plasma Concentrations
smiles,measurement,setting,value
C[C@H](Cc1cc2c(c(C(N)=O)c1)N(CCCO)CC2)NCCOc1ccccc1OCC(F)(F)F [Silodosin],concentration at 2 h,[1]; [6],35.3 ng/mL
same,concentration at 3 h,[1]; [6],24.4 ng/mL
same,concentration at 4 h,[1]; [6],16.6 ng/mL
same,concentration at 5 h,[1]; [6],13.3 ng/mL
same,concentration at 6 h,[1]; [6],8.9 ng/mL
same,concentration at 8 h,[1]; [6],6.14 ng/mL
same,concentration at 0 h,[1]; [7],4.63 ng/mL
same,concentration at 0.5 h,[1]; [7],5.57 ng/mL
same,concentration at 1 h,[1]; [7],21.2 ng/mL
same,concentration at 2 h,[1]; [7],31.5 ng/mL
same,concentration at 3 h,[1]; [7],18.4 ng/mL
same,concentration at 4 h,[1]; [7],13 ng/mL
same,concentration at 5 h,[1]; [7],10.3 ng/mL
same,concentration at 6 h,[1]; [7],7.26 ng/mL
same,concentration at 8 h,[1]; [7],5.45 ng/mL
same,concentration at 12 h,[1]; [7],3.31 ng/mL
same,concentration at 24 h,[1]; [7],2.01 ng/mL
same,concentration at […],"[1]; male, 4 mg once daily 7 days, Day 7, […], mean, read-out: Blood Plasma Concentrations",4.67 ng/mL
same,concentration at 0 h,[1]; [8],4.63 ng/mL
same,concentration at 0.5 h,[1]; [8],5.57 ng/mL
same,concentration at 1 h,[1]; [8],21.2 ng/mL
same,concentration at 2 h,[1]; [8],31.5 ng/mL
same,concentration at 3 h,[1]; [8],18.4 ng/mL
same,concentration at 4 h,[1]; [8],13 ng/mL
same,concentration at 5 h,[1]; [8],10.3 ng/mL
same,concentration at 6 h,[1]; [8],7.26 ng/mL
same,concentration at 8 h,[1]; [8],5.45 ng/mL
same,concentration at 12 h,[1]; [8],3.31 ng/mL
same,concentration at 12.25 h,"[1]; male, 4 mg twice daily 7 days (simulated from Table 1a), Day 7, 12.25 h, read-out: Estimated Blood Plasma Concentrations",4.67 ng/mL
same,concentration at 13 h,"[1]; male, 4 mg twice daily 7 days (simulated from Table 1a), Day 7, 13 h, read-out: Estimated Blood Plasma Concentrations",21.2 ng/mL
same,concentration at 14 h,"[1]; male, 4 mg twice daily 7 days (simulated from Table 1a), Day 7, 14 h, read-out: Estimated Blood Plasma Concentrations",31.5 ng/mL
same,concentration at 15 h,"[1]; male, 4 mg twice daily 7 days (simulated from Table 1a), Day 7, 15 h, read-out: Estimated Blood Plasma Concentrations",18.4 ng/mL
same,concentration at 16 h,"[1]; male, 4 mg twice daily 7 days (simulated from Table 1a), Day 7, 16 h, read-out: Estimated Blood Plasma Concentrations",13 ng/mL
same,concentration at 17 h,"[1]; male, 4 mg twice daily 7 days (simulated from Table 1a), Day 7, 17 h, read-out: Estimated Blood Plasma Concentrations",10.3 ng/mL
same,concentration at 18 h,"[1]; male, 4 mg twice daily 7 days (simulated from Table 1a), Day 7, 18 h, read-out: Estimated Blood Plasma Concentrations",4.63 ng/mL
same,concentration at 20 h,"[1]; male, 4 mg twice daily 7 days (simulated from Table 1a), Day 7, 20 h, read-out: Estimated Blood Plasma Concentrations",4.67 ng/mL
same,concentration at 24 h,[1]; [8],5.57 ng/mL
same,Incidence of Adverse Events: Dizziness,symptoms of BPH [2],2.6 % of patients
same,Incidence of Adverse Events: Orthostatic Hypotension,symptoms of BPH [2],2.6 % of patients
same,Incidence of Adverse Events: Syncope,symptoms of BPH [2],0 % of patients
same,Mean Change From Baseline (CFB) in Maximum Flow Rate,symptoms of BPH [2]; 2-6 hrs after 1st dose,2.7 mL/s
same,IPSS/AUASS baseline value,symptoms of BPH [2]; Week 0,21.5
same,Maximum Flow Rate baseline value,symptoms of BPH [2]; Week 0,9.0 mL/s
same,Mean Change From Baseline (CFB) in IPSS/AUASS,symptoms of BPH [2]; Week 0.5,−3.9
same,Mean Change From Baseline (CFB) in IPSS/AUASS,symptoms of BPH [2]; Week 1,−4.5
same,Mean Change From Baseline (CFB) in Maximum Flow Rate,symptoms of BPH [2]; Week 1,2.2 mL/s
same,Mean Change From Baseline (CFB) in IPSS/AUASS,symptoms of BPH [2]; Week 2,−5.3
same,Mean Change From Baseline (CFB) in Maximum Flow Rate,symptoms of BPH [2]; Week 2,2.6 mL/s
same,Mean Change From Baseline (CFB) in IPSS/AUASS,symptoms of BPH [2]; Week 4,−5.9
same,Mean Change From Baseline (CFB) in Maximum Flow Rate,symptoms of BPH [2]; Week 4,2.4 mL/s
same,Mean Change From Baseline (CFB) in IPSS/AUASS,symptoms of BPH [2]; Week 12,−6.7
same,Mean Change From Baseline (CFB) in Maximum Flow Rate,symptoms of BPH [2]; Week 12,2.1 mL/s
same,Incidence of Adverse Events: Dizziness,symptoms of BPH [3],3.9 % of patients
same,Incidence of Adverse Events: Orthostatic Hypotension,symptoms of BPH [3],2.6 % of patients
same,Mean Change From Baseline (CFB) in Maximum Flow Rate,symptoms of BPH [3]; 2-6 hrs after 1st dose,2.9 mL/s
same,IPSS/AUASS baseline value,symptoms of BPH [3]; Week 0,21.2
same,Maximum Flow Rate baseline value,symptoms of BPH [3]; Week 0,8.4 mL/s
same,Mean Change From Baseline (CFB) in IPSS/AUASS,symptoms of BPH [3]; Week 0.5,−4.4
same,Mean Change From Baseline (CFB) in IPSS/AUASS,symptoms of BPH [3]; Week 1,−5.0
same,Mean Change From Baseline (CFB) in Maximum Flow Rate,symptoms of BPH [3]; Week 1,2.9 mL/s
same,Mean Change From Baseline (CFB) in IPSS/AUASS,symptoms of BPH [3]; Week 2,−5.6
same,Mean Change From Baseline (CFB) in Maximum Flow Rate,symptoms of BPH [3]; Week 2,2.9 mL/s
same,Mean Change From Baseline (CFB) in IPSS/AUASS,symptoms of BPH [3]; Week 4,−6.2
same,Mean Change From Baseline (CFB) in Maximum Flow Rate,symptoms of BPH [3]; Week 4,2.7 mL/s
same,Mean Change From Baseline (CFB) in IPSS/AUASS,symptoms of BPH [3]; Week 12,−6.6
same,Mean Change From Baseline (CFB) in Maximum Flow Rate,symptoms of BPH [3]; Week 12,3.1 mL/s
same,Incidence of Adverse Events: Syncope,"symptoms of BPH [3]; one subject, using excluded medication Prazosin",0.4^1 % of patients
same,"mean changes in IPSS/AUASS and Qmax, 8 mg once daily compared with 4 mg twice daily",[4],comparable
same,Incidence of Adverse Events: Dizziness,symptoms of BPH [5],2.2 % of patients
same,Incidence of Adverse Events: Orthostatic Hypotension,symptoms of BPH [5],1.1 % of patients
same,Incidence of Adverse Events: Syncope,symptoms of BPH [5],0 % of patients
same,IPSS/AUASS baseline value,symptoms of BPH [5]; Week 0,18.7
same,Maximum Flow Rate baseline value,symptoms of BPH [5]; Week 0,10.70 mL/s
same,Mean Change From Baseline (CFB) in IPSS/AUASS,symptoms of BPH [5]; Week 2,−5.6
same,Mean Change From Baseline (CFB) in IPSS/AUASS,symptoms of BPH [5]; Week 4,−6.6
same,Mean Change From Baseline (CFB) in Maximum Flow Rate,symptoms of BPH [5]; Week 4,1.31 mL/s
